Source: US20260125675A1, “DOWNREGULATING TROLLS USING NOVEL ANTISENSE OLIGONUCLEOTIDES TO OVERCOME RESISTANCE TO CHEMOTHERAPY” (H. LEE MOFFITT CANCER CENTER AND RESEARCH INSTITUTE, INC., priority 2022, published 2026)

How the values were obtained:
Assay type in all cases: cell-based, human
Settings in all cases: treated 72 hr
[1] = system: TROLL-3; assay: qRT-PCR for TROLL-3 in CAID cells treated with the indicated drugs
Description: (§1) 195. We were interested in determining the effect of treatment with adriamycin, docetaxel, or paclitaxel on the levels of TOLL-2 and TROLL-3. qRT-PCR was performed for TROLL-2 and TROLL-3 in CAID cells treated with the indicated drugs for 72 hr. Western blosts of the levels of phosphorylated and total AKT, and relative quantification were determined (FIG. 1). […] We next observed that the levels of TROLL-3 are higher in lung adenocarcinoma (LUAD) with EGFR mutations with EGFR mutations in 2 distinct cohorts of patients (the TCGA cohort and Moffitt cohort) (FIGS. 2 and 3). Next we looked at the association association between pAKT levels and resistance to treatment in a panel of LUAD cell lines. Western blot levels of phosphorylated and total AKT in the indicated cell lines. Red boxes denote cell lines where PAKT levels are higher in the cells resistant to the indicated inhibitors compared to the respective parental cells (FIG. 4). Such increase in pAKT levels is associated with the resistance to anti-cancer treatment. To see the effect of TROLL-2 or TROLL-3 downregulation of pAKT levels in LUAD cells, we prefromed western blosts of the lvels of phosphorylated and total AKT in parental and KRASi resistant or EGFRi resistant cells using untreated on siRNA knockdown of TROLL-2 or TROLL-3 (FIGS. 5 and 6). We observed that downregulation of TROLL-2 or TROLL-3 reduces pAKT levels in KRASi and EGFRi resistant LUAD cells. Next we identified antisense LNA GapmeRs targeting TROLL-2 and TROLL-3 (50 nM-2 experiments). We used […]-PCR (qRT-PCR) for TROLL-2 and TROLL-3 in CAID cells treated with the indicated Antisense LNA GapmeRs for 48 hr. The following reagents were purchased from Qiagen: negative control=LG00000002-DDB, TROLL-2 A=LG00807687-DDB. TROLL-2 B=LG00807688-DDB, TROLL-2 C=LG00807689-DDB. TROLL-2 D=LG00807691-DDB, TROLL-2 E=LG00807694-DDB, TROLL-3 A=LG00807697-DDB, TROLL-3 B=LG00807698-DDB, TROLL-3 C=LG00807699-DDB, TROLL-3 D=LG00807700-DDB, and TROLL-3 E=LG00807701-DDB (FIG. 7). […]

[2] = system: AKT; assay: Western blot of phosphorylated and total AKT in drug-treated CAID cells
Description: as §1

[3] = system: TROLL-2; assay: qRT-PCR for TROLL-2 in CAID cells treated with the indicated drugs
Description: as §1

With `COc1cccc2c1C(=O)c1c(O)c3c(c(O)c1C2=O)C[C@@](O)(C(=O)CO)C[C@@H]3O[C@H]1C[C@H](N)[C@H](O)[C@H](C)O1` [adriamycin] as the molecule, how does the “levels of TROLL-3 (qRT-PCR)” value [1] read?
Its value is “increases”.

What about the “AKT pathway activation (phosphorylated and total AKT, western blot)” value [2] of the same molecule?
Its value is “activation of the AKT pathway”.

And the “levels of TROLL-2 (qRT-PCR)” value [3]?
The value was “increases”.

What does the source list for `CC(=O)O[C@@]12CO[C@@H]1C[C@H](O)[C@@]1(C)C(=O)[C@H](O)C3=C(C)[C@@H](OC(=O)[C@H](O)[C@@H](NC(=O)OC(C)(C)C)c4ccccc4)C[C@@](O)([C@@H](OC(=O)c4ccccc4)[C@H]21)C3(C)C` [docetaxel]?
levels of TROLL-3 (qRT-PCR) [1]: increases; AKT pathway activation (phosphorylated and total AKT, western blot) [2]: activation of the AKT pathway; levels of TROLL-2 (qRT-PCR) [3]: increases

Which results are given for `CC(=O)O[C@H]1C(=O)[C@@]2(C)[C@H]([C@H](OC(=O)c3ccccc3)[C@]3(O)C[C@H](OC(=O)[C@H](O)[C@@H](NC(=O)c4ccccc4)c4ccccc4)C(C)=C1C3(C)C)[C@]1(OC(C)=O)CO[C@@H]1C[C@@H]2O` [paclitaxel]?
levels of TROLL-3 (qRT-PCR) [1]: increases; AKT pathway activation (phosphorylated and total AKT, western blot) [2]: activation of the AKT pathway; levels of TROLL-2 (qRT-PCR) [3]: increases
